In assay [1] the target is TrkA (Homo sapiens (Human), UniProt P04629). Put plainly: TrkA kinase HTRF enzyme inhibition assay. The note with it: TrkA pre-incubated with 200 μM ATP. In kind it is biochemical. The method in brief: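 HTRF ratio read-out of biotin-peptide (125 nM) phosphorylation, 1 h reaction after TrkA (2-10 nM) auto-activation with ATP (200 μM) for 20 min and 10 min compound pre-incubation in 50 mM HEPES pH 7.4 with MgCl2/MnCl2. Percent inhibition from initial rates in duplicate, fitted to single-site equation for IC50.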
Sequence of TrkA (P04629 33-796): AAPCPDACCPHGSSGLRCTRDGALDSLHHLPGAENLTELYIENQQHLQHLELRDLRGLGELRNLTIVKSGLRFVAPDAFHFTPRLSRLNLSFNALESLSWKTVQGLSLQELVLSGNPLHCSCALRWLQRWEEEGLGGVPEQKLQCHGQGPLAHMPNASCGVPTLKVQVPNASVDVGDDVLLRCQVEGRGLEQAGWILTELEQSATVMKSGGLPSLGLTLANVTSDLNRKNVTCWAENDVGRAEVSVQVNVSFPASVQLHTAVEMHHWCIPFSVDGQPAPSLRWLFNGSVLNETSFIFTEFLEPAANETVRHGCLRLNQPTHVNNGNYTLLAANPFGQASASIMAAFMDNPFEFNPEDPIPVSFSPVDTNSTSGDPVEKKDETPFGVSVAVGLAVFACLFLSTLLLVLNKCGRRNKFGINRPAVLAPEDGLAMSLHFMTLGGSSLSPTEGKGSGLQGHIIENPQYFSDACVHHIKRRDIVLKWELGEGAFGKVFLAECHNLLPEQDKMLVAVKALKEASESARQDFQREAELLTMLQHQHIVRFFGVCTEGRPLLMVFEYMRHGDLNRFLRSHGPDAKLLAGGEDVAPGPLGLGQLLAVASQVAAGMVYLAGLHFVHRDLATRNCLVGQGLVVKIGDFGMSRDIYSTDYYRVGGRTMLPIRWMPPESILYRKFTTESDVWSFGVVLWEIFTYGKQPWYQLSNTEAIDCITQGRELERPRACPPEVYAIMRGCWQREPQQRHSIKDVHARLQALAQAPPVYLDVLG

In assay [2] the test system is MIA-induced osteoarthritis pain. Kind of assay: Rat model of mono-iodoacetic acid (MIA) induced osteoarthritis pain, hind limb grip force. It is filed as in vivo. To be noted: mean percent effect. The procedure: Members of the TrkA inhibitors described above were tested and found effective in reducing osteoarthritis pain. The compounds tested were assessed in an in vivo model well known to those skilled in the art, the rat model of mono-iodoacetic acid induced osteoarthritis pain. A general review of various models of pain can be found in Joshi and Honore, Expert Opinion in Drug Discovery (2004) 1, pp. 323-334, and in the book ‘Drug Discovery and Evaluation, 2nd edition (H. Gerhard Vogel, editor; Springer-Verlag, New York, 2002; pp. 702-706). Pain behavior was assessed by measurement of hind limb grip force (GF) in adult osteoarthritic rats. Male Sprague Dawley rats, generally weighing 125-150 g, were injected in the unilateral knee join with a single intra-articular injection of sodium monoiodoacetate (MIA). Rats were tested at 21-28 days following MIA injection. A behavioral measure of activity-induced pain was carried out. Measurements of the peak hind limb grip force were conducted by recording the maximum compressive force (CFmax), in grams of force, exerted on a hind limb strain gauge setup, in a commercially available grip force measurement system (Columbus Instruments, Columbus, Ohio). During testing, each rat was gently restrained by grasping it around its rib cage and then allowed to grasp the wire mesh frame attached to the strain gauge. The experimenter then moved the animal in a rostral-to-caudal direction until the grip was broken. Each rat was sequentially tested twice at an approximately 2-3 minute interval to obtain a raw mean grip force (CFmax). This raw mean grip force data was in turn converted to a maximum hindlimb cumulative compressive force (CFmax), as the grams of force/kg of body weight, for each animal. For evaluating the compound effects, the hind limb grip force testing in the MIA-treated rats was conducted generally 30-60 minutes after dosing with the test compound. A group of age-matched naïve (not injected with MIA) animals was added as a comparator to the drug-dosed groups. The vehicle control response for each group of MIA-treated animals was defined as the 0% response (0% effect), whereas the naïve control group was defined as the normal response and as 100% effect. The % effect=(Treatment CFmax−Vehicle CFmax)[…]]×100). Higher % effect numbers indicate increased relief from the pain in the model, with 100% indicating a return to the level of response seen in normal (non-osteoarthritic) animals. All experiments evaluating drug effects in this model were conducted in a randomized blinded fashion. Male Sprague Dawley rats (generally 250-300 g body weight at the time of testing) obtained from Charles River Laboratories (Wilmington, Mass.) were used for all experiments, unless indicated otherwise. The animals were housed in Association for Assessment and Accreditation of Laboratory Animal Care (AAALAC) approved facilities at AbbVie in a temperature-regulated environment under a controlled 12-hour light-dark cycle, with lights on at 6:00 a.m. Food and water were available ad libitum at all times except during testing. All testing was done following procedures outlined in protocols approved by AbbVie Institutional Animal Care and Use Committee.

The mark [3] stands for this setting: 30 mg/kg p.o., tested 30-60 minutes postdosing.

pIC50: −log10 of the molar value. Marks after values point to notes of the source that are not given here.

The term pIC50 denotes the IC50 on a negative log10 scale, so that one unit is a factor of ten. A higher pIC50 goes with a small IC50. `COCCOc1nc(N2CCN(C(C)=O)CC2)ccc1NC(=O)c1coc2c1C(=O)NC(C)(C)C2` [Example 177, N-[6-(4-acetylpiperazin-1-yl)-2-(2-methoxyethoxyl)pyridin-3-yl]-6,6-dimethyl-4-oxo-4,5,6,7-tetrahydrofuro[3,2-c]pyridine-3-carboxamide]: the pIC50 in assay [1] is 7.91. For the same compound, in assay [2] (setting [3]), the “% Effect (hind limb grip force, MIA model)” value (“% Effect” for short) is 68% ***. As for `CCOc1nc(N2CCN(C(C)=O)CC2)ccc1NC(=O)c1coc2c1C(=O)NC(C)(C)C2` [Example 128, N-[6-(4-acetylpiperazin-1-yl)-2-ethoxypyridin-3-yl]-6,6-dimethyl-4-oxo-4,5,6,7-tetrahydrofuro[3,2-c]pyridine-3-carboxamide], in assay [1], the negative logarithm of the IC50 (pIC50) is 8.27. Moreover, in assay [2] (30 mg/kg p.o., tested 3 hours post dose), the “% Effect” value is given as 55% ***.

As for `Cn1cc2cc(NC(=O)c3coc4c3C(=O)CC(C)(C)C4)ccc2n1` [Example 147, 6,6-dimethyl-N-(2-methyl-2H-indazol-5-yl)-4-oxo-4,5,6,7-tetrahydro-1-benzofuran-3-carboxamide], the pIC50 in assay [1] is 7.79. In addition, in assay [2] (300 mg/kg p.o., tested 3 hours post dose), the “% Effect” value is 69% ***. On to `COc1cc(N2CCN(C(C)=O)CC2)ccc1NC(=O)c1coc2c1C(=O)NC(C)(C)C2` [Example 126, N-[4-(4-acetylpiperazin-1-yl)-2-methoxyphenyl]-6,6-dimethyl-4-oxo-4,5,6,7-tetrahydrofuro[3,2-c]pyridine-3-carboxamide], for which the pIC50 in assay [1] was 7.60. Also, the “% Effect” value in assay [2] (100 mg/kg p.o., tested 3 hours post dose) stood at 47% **. For the compound `CCOc1nc(N2CCN(C(C)=O)CC2)ccc1NC(=O)c1coc2c1C(=O)N(CCO)CC2` [Example 9, N-[6-(4-acetylpiperazin-1-yl)-2-ethoxypyridin-3-yl]-5-(2-hydroxyethyl)-4-oxo-4,5,6,7-tetrahydrofuro[3,2-c]pyridine-3-carboxamide], the “% Effect” value in assay [2] (setting [3]) was 69% **. `COc1nc(N2CCN(C(=O)N3CCOCC3)CC2)ccc1NC(=O)c1coc2c1C(=O)NC(C)(C)C2` [Example 121, N-{2-methoxy-6-[4-(morpholin-4-ylcarbonyl)piperazin-1-yl]pyridin-3-yl}-6,6-dimethyl-4-oxo-4,5,6,7-tetrahydrofuro[3,2-c]pyridine-3-carboxamide]: the negative-log IC50 (pIC50) in assay [1] was 7.74. Besides, in assay [2] (setting [3]), the “% Effect” value is recorded as 74% ***.

These data come from patent US9777020B2, “Furo-3-carboxamide derivatives and methods of use” (AbbVie Inc., priority 2014, dated 2017).
